System: SEM cells
Experiment: cell viability relative to DMSO control; higher = less cytotoxic
Details: 48 h
Method in brief: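 Cells were incubated for 48 h at 37°C before CellTiter-Glo One luminescence was read. The cells were NOMO1 or SEM (500 cells/well) or P12-Ichikawa (1000 cells/well) leukemia cells, adapted for at least four passages in each medium and seeded in 1536-well plates (5 μl). Dosing used library compounds in DMSO applied by pin over 11 threefold points, 47 μM to 0.79 nM. Viability is the per-plate percentage of DMSO wells, with cell-free wells as background.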

[1] = HPLM + 10% dialyzed FBS, 0.000781 µM
[2] = HPLM + 10% dialyzed FBS, 0.00234 µM
[3] = HPLM + 10% dialyzed FBS, 0.00702 µM
[4] = HPLM + 10% dialyzed FBS, 0.0211 µM
[5] = HPLM + 10% dialyzed FBS, 0.0632 µM
[6] = HPLM + 10% dialyzed FBS, 0.19 µM
[7] = HPLM + 10% dialyzed FBS, 0.569 µM
[8] = HPLM + 10% dialyzed FBS, 1.71 µM
[9] = HPLM + 10% dialyzed FBS, 5.12 µM
[10] = HPLM + 10% dialyzed FBS, 15.4 µM
[11] = HPLM + 10% dialyzed FBS, 46.1 µM
[12] = RPMI 5 mM glucose + 10% FBS, 0.000781 µM
[13] = RPMI 5 mM glucose + 10% FBS, 0.00234 µM
[14] = RPMI 5 mM glucose + 10% FBS, 0.00702 µM
[15] = RPMI 5 mM glucose + 10% FBS, 0.0211 µM
[16] = RPMI 5 mM glucose + 10% FBS, 0.0632 µM
[17] = RPMI 5 mM glucose + 10% FBS, 0.19 µM
[18] = RPMI 5 mM glucose + 10% FBS, 0.569 µM
[19] = RPMI 5 mM glucose + 10% FBS, 1.71 µM
[20] = RPMI 5 mM glucose + 10% FBS, 5.12 µM
[21] = RPMI 5 mM glucose + 10% FBS, 15.4 µM
[22] = RPMI 5 mM glucose + 10% FBS, 46.1 µM
[23] = RPMI 5 mM glucose + 10% dialyzed FBS, 0.000781 µM
[24] = RPMI 5 mM glucose + 10% dialyzed FBS, 0.00234 µM
[25] = RPMI 5 mM glucose + 10% dialyzed FBS, 0.00702 µM
[26] = RPMI 5 mM glucose + 10% dialyzed FBS, 0.0211 µM
[27] = RPMI 5 mM glucose + 10% dialyzed FBS, 0.0632 µM
[28] = RPMI 5 mM glucose + 10% dialyzed FBS, 0.19 µM
[29] = RPMI 5 mM glucose + 10% dialyzed FBS, 0.569 µM
[30] = RPMI 5 mM glucose + 10% dialyzed FBS, 1.71 µM
[31] = RPMI 5 mM glucose + 10% dialyzed FBS, 5.12 µM
[32] = RPMI 5 mM glucose + 10% dialyzed FBS, 15.4 µM
[33] = RPMI 5 mM glucose + 10% dialyzed FBS, 46.1 µM

SMILES	cell viability [1] [%]	cell viability [2] [%]	cell viability [3] [%]	cell viability [4] [%]	cell viability [5] [%]	cell viability [6] [%]	cell viability [7] [%]	cell viability [8] [%]	cell viability [9] [%]	cell viability [10] [%]	cell viability [11] [%]	cell viability [12] [%]	cell viability [13] [%]	cell viability [14] [%]	cell viability [15] [%]	cell viability [16] [%]	cell viability [17] [%]	cell viability [18] [%]	cell viability [19] [%]	cell viability [20] [%]	cell viability [21] [%]	cell viability [22] [%]	cell viability [23] [%]	cell viability [24] [%]	cell viability [25] [%]	cell viability [26] [%]	cell viability [27] [%]	cell viability [28] [%]	cell viability [29] [%]	cell viability [30] [%]	cell viability [31] [%]	cell viability [32] [%]	cell viability [33] [%]
CC(C)[C@H]1C(=O)N[C@H](CO)Cc2c[nH]c3cccc(c23)N1C	82.3	78.3	90.7	105	114	75.6	85.6	78.9	57.9	64.7	76.6	83	74	91.9	114	99.1	78.3	92.3	74.2	47.9	50.2	61.3	89.7	90.8	99.7	114	102	80.6	104	104	67.1	74.1	88.4
CC(C)[C@]12O[C@H]1[C@@H]3O[C@@]34[C@@]5(C)CC\C6=C(COC6=O)/[C@@H]5C[C@@H]7O[C@]47[C@@H]2O	88.8	8.24	7.05	7.2	8.43	7.98	7.67	7.16	5.34	3.24	2.08	70.6	5.86	5.11	4.85	5.84	5.43	4.78	4.12	3.56	2.23	1.15	107	6.37	6.75	6.32	7.36	7.3	6.55	6.33	4.78	3.05	2.21
CCCCCN(C)CCC(O)(P(=O)([O-])O)P(=O)(O)O	57.1	71.9	72.8	85.3	71.8	91.8	88.3	21.9	82.8	104	75.2	74.5	88.1	84.1	90.4	75.5	100	98.3	16.9	77.5	107	73.3	70	85.4	69	95.7	71.5	87.9	83.2	17.4	86.4	102	78.4
COCCCC/C(=N\OCCN)c1ccc(C(F)(F)F)cc1	86.4	100	75.7	80.8	92	76.1	83.9	96.9	75.4	77	28.1	94.3	86.1	79.7	94.5	92.7	85.9	87.2	92	74.6	73.7	35.6	105	103	88.7	95.8	111	100	91.6	106	99.4	93.1	52.3

— the supplement of paper PMC11451515
